In ChEMBL document CHEMBL5360655, “Design, Synthesis, and Biological Evaluation of Novel P2X7 Receptor Antagonists for the Treatment of Septic Acute Kidney Injury” (J Med Chem, 2023):
Calls of active or inactive are those of the source. The calls are words filed in the database; no cut-off is given here.

Columns and labels:
[1] = biological target: T1, P2X purinoceptor 7 (Mus musculus) (UniProt Q9Z1M0); test: Antagonist activity at mouse P2X7 receptor expressed in HEK293 cells assessed as inhibition of ATP-induced receptor pore formation at 1 uM by propidium iodide dye uptake based fluorescence analysis; format: cell-based; conditions: filed as antagonist
T1 sequence (whole entry): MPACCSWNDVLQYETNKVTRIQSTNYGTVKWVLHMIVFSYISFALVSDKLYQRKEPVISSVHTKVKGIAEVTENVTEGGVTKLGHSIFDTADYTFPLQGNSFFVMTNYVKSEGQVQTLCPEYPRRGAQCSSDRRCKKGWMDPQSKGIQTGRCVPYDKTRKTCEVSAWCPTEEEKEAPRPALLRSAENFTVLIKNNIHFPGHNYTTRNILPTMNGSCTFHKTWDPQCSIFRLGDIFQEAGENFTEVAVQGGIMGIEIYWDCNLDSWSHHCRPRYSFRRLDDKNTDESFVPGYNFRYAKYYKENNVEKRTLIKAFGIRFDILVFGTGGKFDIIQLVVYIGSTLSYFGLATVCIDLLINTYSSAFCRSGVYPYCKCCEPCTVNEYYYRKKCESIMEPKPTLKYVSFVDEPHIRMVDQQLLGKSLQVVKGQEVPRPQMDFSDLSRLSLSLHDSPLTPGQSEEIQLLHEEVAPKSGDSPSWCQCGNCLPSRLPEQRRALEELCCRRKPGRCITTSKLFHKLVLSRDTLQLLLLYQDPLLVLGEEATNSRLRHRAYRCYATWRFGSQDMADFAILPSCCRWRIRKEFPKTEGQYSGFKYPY

[2] = AUC(0 to t) in BALB/c mouse at 10 mg/kg, iv measured for 24 hrs by LC-MS/MS analysis; format: ADME, organism-based; parameters: time 24 hrs, dose 10 mg/kg, route iv; conditions: in vivo
[3] = AUC(0 to t) in BALB/c mouse at 10 mg/kg, po measured for 24 hrs by LC-MS/MS analysis; format: ADME, organism-based; parameters: time 24 hrs, dose 10 mg/kg, route po; conditions: in vivo
[4] = Clearance in BALB/c mouse at 10 mg/kg, iv measured for 24 hrs by LC-MS/MS analysis; format: ADME, organism-based; conditions: in vivo
[5] = Half life in BALB/c mouse at 10 mg/kg, iv measured for 24 hrs by LC-MS/MS analysis; format: ADME, organism-based; conditions: in vivo
[6] = AUC(0 to t) in BALB/c mouse at 10 mg/kg, ip measured for 24 hrs by LC-MS/MS analysis; format: ADME, organism-based; parameters: dose 10 mg/kg, time 24 hrs, route ip; conditions: in vivo
Cytochrome P450 1A2 = biological target: T2, Cytochrome P450 1A2 (Homo sapiens, UniProt P05177); test: Inhibition of CYP1A2 in human liver microsomes using phenacetin as substrate upto 100 uM incubated for 10 mins in presence of NADPH by LC-MS/MS analysis; format: ADME, Microsome
T2 sequence (P05177 whole entry): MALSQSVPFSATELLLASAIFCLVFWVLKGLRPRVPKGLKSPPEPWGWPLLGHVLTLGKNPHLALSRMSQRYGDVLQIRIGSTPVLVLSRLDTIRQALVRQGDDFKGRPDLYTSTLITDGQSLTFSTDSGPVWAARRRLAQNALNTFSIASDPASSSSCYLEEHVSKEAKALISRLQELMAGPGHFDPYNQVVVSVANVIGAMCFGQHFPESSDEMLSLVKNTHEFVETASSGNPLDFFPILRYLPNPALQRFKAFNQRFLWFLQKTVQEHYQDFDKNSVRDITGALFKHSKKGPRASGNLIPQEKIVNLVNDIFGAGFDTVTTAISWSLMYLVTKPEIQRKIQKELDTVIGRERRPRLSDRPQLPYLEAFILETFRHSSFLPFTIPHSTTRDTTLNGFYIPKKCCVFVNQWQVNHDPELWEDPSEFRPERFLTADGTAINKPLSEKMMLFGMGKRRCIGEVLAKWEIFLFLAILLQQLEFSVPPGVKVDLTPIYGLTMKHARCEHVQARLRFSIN

Cytochrome P450 2D6 = Cytochrome P450 2D6 (Homo sapiens, UniProt P10635); test: Inhibition of CYP2D6 in human liver microsomes using dextromethorphan as substrate upto 100 uM incubated for 10 mins in presence of NADPH by LC-MS/MS analysis; format: ADME, Microsome
THP-1 [7] = test: Inhibition of ATP-induced apoptosis in human THP-1 cells at 0.5 to […] pretreated with LPS for 3 hrs followed by incubation with compound for 40 mins followed by treatment with ATP for 6 hrs by CCK8 assay; format: functional, cell-based; conditions: dose 0.5-2.5 µM, time 400.0 min
THP-1 [8] = test: Inhibition of ATP-induced ROS production in human THP-1 cells at […] pretreated with LPS for 3 hrs followed by incubation with compound for 40 mins followed by treatment with ATP for 1 hr by DCFH-DA staining based fluorescence microscopic analysis; format: functional, cell-based; conditions: dose 2.5 µM, time 100.0 min
[9] = Toxicity in C57BL/6J mouse assessed as mortality at 600 mg/kg, ip measured for 14 days; format: organism-based; conditions: in vivo, 336 h, time 14 day
[10] = Toxicity in C57BL/6J mouse assessed as animal's survival rate at 400 mg/kg, ip measured for 14 days; format: organism-based; conditions: in vivo, time 14 day
[11] = Ratio of MTD in ip dosed C57BL/6J mouse to MED for reno-protective activity against ip dosed LPS-induced acute kidney injury C57BL/6J mouse model; format: ADME, organism-based; conditions: in vivo
Mus musculus [12] = test: Reno-protective activity against LPS-induced acute kidney injury C57BL/6J mouse model assessed as decrease in KIM1 mRNA expression in kidney at 5 to 20 mg/kg, ip administered twice at 30 mins prior to LPS challenge and 8 hrs post-LPS challenge and measured at 16 hrs post-LPS challenge by RT-qPCR analysis; format: functional, organism-based; conditions: dose 5-20 mg/kg, time 16.5 hrs
Mus musculus [13] = test: Reno-protective activity against CLP-induced acute kidney injury C57BL/6J mouse model assessed as decrease in BUN level at 20 mg/kg, ip administered twice at 30 mins prior to CLP operation and 8 hrs post-CLP operation and measured at 16 hrs post-CLP operation; format: functional, organism-based; conditions: time 16.5 hrs
Mus musculus [14] = test: (§1) Reno-protective activity against CLP-induced acute kidney injury C57BL/6J mouse model assessed as decrease in NGAL mRNA expression in kidney at 20 mg/kg, ip administered twice at 30 mins prior to CLP operation and 8 hrs post-CLP operation and measured at 16 hrs post-CLP operation by RT-qPCR analysis; format: functional, organism-based; conditions: time 16.5 hrs
Mus musculus [15] = test: as §1, with “Nlrp3 gene” for “NGAL mRNA”, “RNA sequencing” for “RT-qPCR”; format: functional, organism-based; conditions: time 16.5 hrs
Mus musculus [16] = test: as §1, with “Il17 gene” for “NGAL mRNA”, “RNA sequencing” for “RT-qPCR”; format: functional, organism-based; conditions: time 16.5 hrs
Mus musculus [17] = test: as §1, with “NLRP3 protein” for “NGAL mRNA”, “western blot” for “RT-qPCR”; format: functional, organism-based; conditions: time 16.5 hrs
Mus musculus [18] = test: as §1, with “GSDMD-N protein” for “NGAL mRNA”, “western blot” for “RT-qPCR”; format: functional, organism-based; conditions: time 16.5 hrs
Mus musculus [19] = test: Reno-protective activity against ip dosed LPS-induced acute kidney injury C57BL/6J mouse model assessed as decrease in serum […] level administered twice at 30 mins prior to LPS challenge and 8 hrs post-LPS challenge and measured at 16 hrs post-LPS challenge; format: functional; conditions: time 16.5 hrs, read-out: MED

Sequence of Cytochrome P450 2D6 (P10635 whole entry): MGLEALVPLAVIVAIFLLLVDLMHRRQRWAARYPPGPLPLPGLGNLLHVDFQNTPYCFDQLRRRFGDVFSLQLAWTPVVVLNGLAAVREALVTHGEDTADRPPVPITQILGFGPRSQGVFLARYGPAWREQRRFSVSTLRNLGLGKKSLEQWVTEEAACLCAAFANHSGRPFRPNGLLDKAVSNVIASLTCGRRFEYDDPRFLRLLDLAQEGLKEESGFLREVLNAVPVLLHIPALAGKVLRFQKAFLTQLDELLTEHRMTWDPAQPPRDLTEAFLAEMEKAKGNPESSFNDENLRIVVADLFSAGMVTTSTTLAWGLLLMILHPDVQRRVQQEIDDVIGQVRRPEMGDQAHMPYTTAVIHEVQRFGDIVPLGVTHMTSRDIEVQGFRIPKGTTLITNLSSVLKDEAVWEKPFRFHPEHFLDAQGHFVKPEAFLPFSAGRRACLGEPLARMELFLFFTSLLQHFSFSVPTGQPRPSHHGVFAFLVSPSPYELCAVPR

SMILES: CS(=O)(=O)c1ccc(-c2nc(C(=O)NCc3cn(-c4cc(Br)ccn4)nn3)cs2)cc1
- inhibition [1]: 107%
- AUC(0-t) at 24 h [2]: 16600 ng·h/mL
- AUC(0-t) at 24 h [3]: 6510 ng·h/mL
- clearance [4]: 9.83 mL/min/kg
- half-life [5]: 5.31 h
- AUC(0-t) at 24 h [6]: 11900 ng·h/mL
- inhibition (INH) (Cytochrome P450 1A2): Not Active
- inhibition (INH) (Cytochrome P450 2D6): Not Active
- inhibition (THP-1 [7]): Active
- inhibition (THP-1 [8]): Active
- Activity [9]: Toxic
- survival at 336 h [10]: 100%
- selectivity ratio [11]: 80
- Activity (Mus musculus [12]): Dose-Dependent Effect
- Activity (Mus musculus [13]): Active
- Activity (Mus musculus [14]): Active
- Activity (Mus musculus [15]): Active
- Activity (Mus musculus [16]): Active
- Activity (Mus musculus [17]): Active
- Activity (Mus musculus [18]): Active
- minimal effective dose (Mus musculus [19]): 5 mg/kg
